The numbers were not newly measured in PMC5408581, “Using X-ray Crystallography, Biophysics, and Functional Assays to Determine the Mechanisms Governing T-cell Receptor Recognition of Cancer Antigens” (Journal of Visualized Experiments : JoVE, 2017), which cites them from elsewhere.

Read-outs that look alike come from different tables or passages of the source.

Series [1] concerns the target gp100 TCR (TRAV17 TRBV19). Also on record: method as in PMID 26917722. The following applies: SPR, CM5 chip, 25 °C, table reprinted; for Kd: read-out: gp100 TCR TRAV17 TRBV19 Affinity KD. (SPR reads the build-up and loss of mass on a sensor chip optically.)
Series [2] deals with PMEL17 TCR (TRAV21 TRBV7-3). Also on record: method as in PMID 26917722. Conditions: SPR, CM5 chip, 25 °C, table reprinted.
The mark [3] stands for this setting: peptide refolded with biotin-tagged HLA-A*0201/β2m and coupled via streptavidin (~500-600 RU), ten serial dilutions of soluble TCR, 30 µL/min, equilibrium KD by nonlinear fit.

For the sequence “YLAPGPVTA [YLE-3A, with HLA-A*0201 called A2-YLE-3A]”, the “gp100 TCR TRAV17 TRBV19 Affinity KD” value in series [1] (setting [3]) is “No binding”. Also, the “PMEL17 TCR TRAV21 TRBV7-3 Affinity KD” value in series [2] (setting [3]) is “No binding”. One may read the Kd as the equilibrium constant for the complex coming apart. For “YLEPAPVTA [YLE-5A, with HLA-A*0201 called A2-YLE-5A]”, the Kd in series [1] (peptide-HLA-A*0201 coupled via streptavidin, soluble TCR injected, bound given in mM) is above 1 mM; in series [2] (read-out: PMEL17 TCR TRAV21 TRBV7-3 Affinity KD, peptide-HLA-A*0201 coupled via streptavidin, soluble TCR injected, bound given in mM), above 1 mM. For the sequence “YLEPGPVTA [presented by HLA-A*0201 it is called A2-YLE]”, in series [1] (setting [3]), the Kd is 0.0265 ± 0.0023 mM.

As to “YLEPGPVTV [YLE-9V, with HLA-A*0201 called A2-YLE-9V]”, the Kd in series [1] (setting [3]) was 0.0219 ± 0.0024 mM.
